Reference: patent US10136647B2, “Synergistic Bacillus thuringiensis subsp. kurstaki and chlorantraniliprole mixtures for diamondback moth, beet armyworm, sugarcane borer, soybean looper and corn earworm control” (priority 2015, dated 2018)
Read-outs that look alike come from different tables or passages of the source.

Legend:
[1] = tested on: cabbage looper larvae; assay: Laboratory leaf dip test on cabbage looper larvae; assay type: in vivo; conditions: Trichoplusia ni, foliar, Btk 0.54 ppm, chlorantraniliprole 0.0009 ppm, read-out: % Efficacy
Procedure: (§1) DiPel® DF was used as the source of Bacillus thuringiensis subsp. kurstaki and Coragen® was used as the source of chlorantraniliprole. The present invention is not limited to the products or formulation types used herein. In each example below, the studies were conducted as follows.
(§2) For these tests, standardized laboratory leaf dip methods were used to inoculate plant material with treatment(s). Dry, treated leaves were placed into Petri dishes (100×25 mm) containing filter paper wetted with 500 μl of distilled H2O (“dH2O”). Each dish was then infested with between 5 and 10 larvae, dependent on species. Efficacy ratings were taken at specified intervals. Synergy ratings were calculated for each test.
(§3) % Cexp=A+B−(AB/100), where % Cexp is the expected efficacy and “in which A and B are the control levels given by the single [insecticides]. If the ratio between the experimentally observed efficacy of the mixture Cobs and the expected efficacy of the mixture is greater than 1, synergistic interactions are present in the mixture.” (Gisi, Synergisitic Interaction of Fungicides in Mixtures, The American Phytopathological Society, 86:11, 1273-1279,1996). Adopting a conservative approach, Applicant determined synergy to be present at ratios of >1.15.

[2] = tested on: beet armyworm larvae; assay: Laboratory leaf dip test on beet armyworm larvae; assay type: in vivo; conditions: Spodoptera exigua, foliar, Btk 0.54 ppm, chlorantraniliprole 0.0009 ppm, read-out: % Efficacy
Procedure: as §1, §2, §3

[3] = tested on: diamondback moth larvae; assay: Laboratory leaf dip test on diamondback moth larvae; assay type: in vivo; conditions: Plutella xylostella, foliar, 24 h after treatment, Btk 0.54 ppm, chlorantraniliprole 0.0009 ppm, read-out: % Efficacy
Procedure: as §1, with “The following examples illustrate the synergy of Bacillus thuringiensis subsp. kurstaki and chlorantraniliprole when controlling diamondback moth, beet armyworm, sugarcane borer, soybean looper, and corn earworm. DiPel®” for “DiPel®”
For these tests, standardized laboratory leaf dip methods were used to inoculate plant material with treatment(s). Dry, treated leaves were placed into Petri dishes (100×25 mm) containing filter paper wetted with 500 μl of distilled H2O (“dH2O”). […] Synergy ratings were calculated for each test. […]
% Cexp=A+B−(AB/100), where % Cexp is the expected efficacy and “in which A and B are the control levels given by the single [insecticides]. […] Adopting a conservative approach, Applicant determined synergy to be present at ratios of >1.15. […]
In order to determine synergy, rates below normal field rate ranges must be used. If normal field rate ranges are used, all of the larvae would die (combining a lethal or near lethal dose of Bacillus thuringiensis subsp. kurstaki with a lethal dose of chlorantraniliprole would most likely lead to larvae death) in every treatment and synergy would not be able to be determined. […]

[4] = tested on: soybean looper larvae; assay: Laboratory leaf dip test on soybean looper larvae; assay type: in vivo, Chrysodeixis includens; conditions: foliar, Btk 0.54 ppm, chlorantraniliprole 0.045 μg/ml, read-out: % Efficacy
Procedure: as §1, §2, §3
In this study, the response of soybean looper larvae to Bacillus thuringiensis subsp. kurstaki and chlorantraniliprole was observed.
For this species, the same ppm of Bacillus thuringiensis subsp. kurstaki was used, but 0.045 μg/ml was used for chlorantraniliprole.

[5] = tested on: sugarcane borer larvae; assay: Laboratory leaf dip test on sugarcane borer larvae; assay type: in vivo; conditions: Diatraea saccharalis, foliar, Btk 0.54 ppm, chlorantraniliprole 0.0009 ppm, read-out: % Efficacy
Procedure: as §1, §2, §3

[6] = tested on: southwestern corn borer larvae; assay: Laboratory leaf dip test on southwestern corn borer larvae; assay type: in vivo; conditions: foliar, 72 h after treatment, Btk 0.54 ppm, chlorantraniliprole 0.0009 ppm, read-out: % Efficacy
Procedure: as §1, §2, §3

[7] = tested on: corn earworm larvae; assay: Laboratory leaf dip test on corn earworm larvae; assay type: in vivo; conditions: Helicoverpa zea, foliar, Btk 0.54 ppm, chlorantraniliprole 0.0009 ppm, read-out: % Efficacy
Procedure: as §1, §2, §3

Structure (SMILES): CNC(=O)c1cc(Cl)cc(C)c1NC(=O)c1cc(Br)nn1-c1ncccc1Cl [Chlorantraniliprole]
- Emax at 0.0009 ppm ([1]; 24 h after treatment): 46%
- Emax at 0.0009 ppm ([1]; 48 h after treatment): 46%
- Emax at 0.0009 ppm ([2]; 24 h after treatment): 7%
- Emax at 0.0009 ppm ([2]; 48 h after treatment): 17%
- Emax at 0.0009 ppm ([2]; 72 h after treatment): 30%
- Emax at 0.0009 ppm [3]: 12%
- Emax at 0.045 µg/mL ([4]; 24 h after treatment): 7%
- Emax at 0.045 µg/mL ([4]; 48 h after treatment): 10%
- Emax at 0.045 µg/mL ([4]; 72 h after treatment): 17%
- Emax at 0.0009 ppm ([5]; 24 h after treatment): 10%
- Emax at 0.0009 ppm ([5]; 48 h after treatment): 10%
- Emax at 0.0009 ppm ([5]; 72 h after treatment): 19%
- Emax at 0.0009 ppm [6]: 31%
- Emax at 0.0009 ppm ([7]; 24 h after treatment): 7%
- Emax at 0.0009 ppm ([7]; 48 h after treatment): 20%
- Emax at 0.0009 ppm ([7]; 72 h after treatment): 20%
